Entries after “also recorded” stand apart in the source; their conditions may differ.

Common to all, as to type: cell-based, human
For test [1], the system named is NFAT1. The experiment in a line: PMA/Ionomycin-induced NFAT1 translocation in Jurkat cells incubated in patient plasma obtained after in vivo tacrolimus administration. The following applies: patient plasma obtained between 1 h and 12 h after tacrolimus administration (FIGS. 8 and 9).
Test [2] concerns NFkB. In words: PMA/Ionomycin-induced NFkB activation in healthy donor CD4+ cells in plasma, imaging flow cytometry. The following applies: increasing concentrations of Tacrolimus (FIG. 6).
Test [3] deals with NFAT. The experiment in a line: PMA/Ionomycin-induced NFAT translocation in healthy donor cells, imaging flow cytometry. In general terms: Flow cytometry measures light scatter and fluorescence of single cells or particles in a stream.
Test [4] deals with NFAT. In words: PMA/Ion-induced NFAT activation potential in CD4+ and CD8+ T cells of stable transplant recipients receiving tacrolimus. The procedure: Protocol to measure the NF-κB and/or NFAT activation potential in immunophenotypically defined cell populations: Obtain peripheral blood sample in sodium heparin container. Keep PBL sample at ambient room temperature. Prepare sufficient number of 15 mL polypropylene tubes (10-9152N, Niagara Scientific, Lancaster, N.Y.) to accommodate the number of variables to be tested. One tube is needed for the unstimulated control, one for the unstimulated cell line control (HL60 […] or Jurkat) and two (1 for HL60 and 1 for patient sample) for each of the stimulation conditions to be tested (e.g. PMA/Ion, TNFα, CD3/CD28, etc.). Aliquot 500 μl whole blood per tube for the patient samples. For cell line controls, add enough volume from culture flask to yield 2×10^6 cells/tube. […]
Cell line controls are washed in 1× Phosphate Buffered saline solution (1×PBS) (Mediatech, Herndon, Va.), and then fixed by adding 1 ml of a 4% solution of methanol free Formaldehyde (Polysciences, Warrington, Pa.) at room temperature for 10 minutes. Cells are washed twice in 1×PBS, spin, and resuspend cell pellets in residual volume (they are now ready to be probed for NF-κB and/or NFAT and are left at room temperature until whole blood samples are ready). […] Cells are now ready to be probed for NF-κB and/or NFAT. […] Samples are then washed in 1×PBS and are ready to be run on the imaging cell sorting machine. […]

As for `C=CC[C@@H]1/C=C(\C)C[C@H](C)C[C@H](OC)[C@H]2O[C@@](O)(C(=O)C(=O)N3CCCC[C@H]3C(=O)O[C@H](/C(C)=C/[C@@H]3CC[C@@H](O)[C@H](OC)C3)[C@H](C)[C@@H](O)CC1=O)[C@H](C)C[C@@H]2OC` [tacrolimus], in test [1], the “inhibitory effect on NFAT in cells naive to previous tacrolimus exposure” value is given as “closely mirrors that of the expected plasma levels; also recorded: a good dose-response was observed”. The “inhibitory effect on NFkB activation” value in test [2] is given as “less pronounced for NFkB but can be seen at higher drug concentrations”. Also, the NFAT translocation potential entry in test [3] (healthy donor CD4+ cells in plasma, increasing concentrations of Tacrolimus (FIG. 6)) is recorded as “dose-dependent decrease”. For the same compound, in test [3] (healthy donor peripheral blood, CD4+ cells in culture medium, increasing concentration of tacrolimus (FIG. 5)), the “inhibition of PMA/Ion-induced NFAT translocation” value is reported as “dose-dependent inhibition”. The “correlation between extracellular concentrations and PMA/Ionomycin-induced NFAT1 activation potential” value in test [3] (in vitro, spiked into tissue culture media, plasma or whole blood, naive cells (Jurkat or healthy donor CD4+ or CD8+ T cells)) is “a strong correlation is observed”. Besides, in test [4] (CD4+ and CD8+ cells of transplant recipients chronically exposed to tacrolimus), the “correlation between trough tacrolimus levels and NFAT activation potential” value is given as “Neither for CD4+ nor CD8+ cells was a correlation found; also recorded: no statistically significant dose-response relationship was observed”. Moreover, the “difference in NFAT activation potential before (0 h) and after (4 h) a dose” value in test [4] (CD4+ or CD8+ cells of stable transplant recipients) is listed as “did not determine a significant difference”.

The record behind these values is patent US20130183686A1, “METHOD OF EVALUATING IMMUNOSUPPRESSION” (priority 2008, published 2013).
